Here are results for three compounds from ChEMBL document CHEMBL1158026, “New jaspamide derivatives from the marine sponge Jaspis splendans collected in Vanuatu” (J Nat Prod, 1999).

The structures appear in SMILES notation. Values after ≈ are worked out from the molar mass of the structure shown.

The term IC50 denotes the concentration needed to halve the response being measured.

This test in a line: Cytotoxicity against human NSCLC-N6 cells by MTT assay. Format: functional, cell-based. In general terms: Tetrazolium assays rely on reduction of a dye to a coloured formazan, in cell work by metabolically active cells.
Regarding `C=C1C[C@H](C)C(=O)N[C@@H](C)C(=O)N(C)[C@H](Cc2c(Br)[nH]c3ccccc23)C(=O)N[C@@H](c2ccc(O)cc2)CC(=O)O[C@@H](C)C[C@@H](C)C1O` (stereo partly drawn) [JASPAMIDE C], it took 1.1 µg/mL (≈ 1.52 µM) to reach half-maximal inhibition (IC50).

`C/C1=C\[C@H](C)C[C@H](C)OC(=O)C[C@H](c2ccc(O)cc2)NC(=O)[C@@H](Cc2c(Br)[nH]c3ccccc23)N(C)C(=O)[C@H](C)NC(=O)[C@@H](C)C1` [JASPAMIDE]: the IC50 stood at 0.36 µg/mL (≈ 0.507 µM).

The compound `C=C1C[C@H](C)C(=O)N[C@@H](C)C(=O)N(C)[C@H](Cc2c(Br)[nH]c3ccccc23)C(=O)N[C@@H](c2ccc(O)cc2)CC(=O)O[C@@H](C)C[C@@H](C)C1=O` [JASPLAKINOLIDE B] came in with a 50% inhibitory concentration (IC50) of 3.3 µg/mL (≈ 4.56 µM).
